Reference: patent US10844051B2, “Substituted oxazoles for the treatment of cancer” (THE ROYAL INSTITUTION FOR THE ADCANCEMENT OF …, priority 2015, dated 2020)

Columns and labels:
Type in all cases: cell-based
[1] = target: T1, ETV1 (Homo sapiens, UniProt P50549); assay: ETV1-dependent reporter assay in HEK293 cells; details: 48 hours
T1 construct: expressed in transfected cells; host or cells: HEK293
T1 sequence (P50549 1-477): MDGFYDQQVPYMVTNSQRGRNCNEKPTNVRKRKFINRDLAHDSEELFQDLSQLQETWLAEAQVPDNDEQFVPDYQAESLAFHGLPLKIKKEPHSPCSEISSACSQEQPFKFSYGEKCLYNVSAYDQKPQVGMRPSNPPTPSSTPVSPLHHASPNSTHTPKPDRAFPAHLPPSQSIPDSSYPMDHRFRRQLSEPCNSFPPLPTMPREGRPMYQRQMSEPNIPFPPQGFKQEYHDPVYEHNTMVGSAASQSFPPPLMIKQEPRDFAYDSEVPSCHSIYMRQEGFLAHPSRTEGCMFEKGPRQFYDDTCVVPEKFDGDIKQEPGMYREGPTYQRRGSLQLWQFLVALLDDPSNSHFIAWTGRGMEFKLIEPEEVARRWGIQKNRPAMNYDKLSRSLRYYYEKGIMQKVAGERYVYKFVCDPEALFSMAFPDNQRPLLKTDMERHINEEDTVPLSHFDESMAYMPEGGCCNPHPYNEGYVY
Description: HEK293 cells were transiently transfected with empty vector (for the NT) or ERG-expressing plasmid as well as pRL-TK (internal control) and PUx3-Luc reporter. Cells were then exposed to DMSO vehicle or compounds at designated doses for 48 hours. Experiments were done in triplicate.
Experiments were done as described above in FIG. 1.1a) except that ERG plasmid was replaced by ETV1 plasmid.

[2] = target: T2, human STING (hSTING) (Homo sapiens, UniProt Q86WV6); assay: hSTING ISRE-luc reporter assay in 293T cells; details: 24 hours
T2 construct: expressed in transfected cells; host or cells: 293T
T2 sequence (Q86WV6 whole entry H232R): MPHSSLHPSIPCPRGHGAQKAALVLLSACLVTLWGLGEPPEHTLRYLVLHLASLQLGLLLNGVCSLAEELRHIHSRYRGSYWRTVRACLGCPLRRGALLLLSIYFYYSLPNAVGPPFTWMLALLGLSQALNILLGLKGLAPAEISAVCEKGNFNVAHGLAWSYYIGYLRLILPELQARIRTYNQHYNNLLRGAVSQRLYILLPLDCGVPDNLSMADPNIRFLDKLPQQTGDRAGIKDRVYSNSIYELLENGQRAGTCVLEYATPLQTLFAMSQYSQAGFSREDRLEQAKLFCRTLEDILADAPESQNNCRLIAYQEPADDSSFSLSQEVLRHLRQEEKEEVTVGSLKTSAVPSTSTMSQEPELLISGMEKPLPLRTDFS
Description: ISRE-luc (reporter), pRL-TK (internal control) and hSTING-expressing plasmids were transiently transfected into 293T cells. Cells were exposed to DMSO vehicle control or compounds for 24 hours. Experiments were done in triplicate.

[3] = target: T3, human GATA2 (Homo sapiens, UniProt P23769); assay: GATA2-dependent reporter assay in IHH cells; details: GATA-Luc reporter, 48 h
T3 construct: expressed in transfected cells; host or cells: IHH
T3 sequence (P23769 1-480): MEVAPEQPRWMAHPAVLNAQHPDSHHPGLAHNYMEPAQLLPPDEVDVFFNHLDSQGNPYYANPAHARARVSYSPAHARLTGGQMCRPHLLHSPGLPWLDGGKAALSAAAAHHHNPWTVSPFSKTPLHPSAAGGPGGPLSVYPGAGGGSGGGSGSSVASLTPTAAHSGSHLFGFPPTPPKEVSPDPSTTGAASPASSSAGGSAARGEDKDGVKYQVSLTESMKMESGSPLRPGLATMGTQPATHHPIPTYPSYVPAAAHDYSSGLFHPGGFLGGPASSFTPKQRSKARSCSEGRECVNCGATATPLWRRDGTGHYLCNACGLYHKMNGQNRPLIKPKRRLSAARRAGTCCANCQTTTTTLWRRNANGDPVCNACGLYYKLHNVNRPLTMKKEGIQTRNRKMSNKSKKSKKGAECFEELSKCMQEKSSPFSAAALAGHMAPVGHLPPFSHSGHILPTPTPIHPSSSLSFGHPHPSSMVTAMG
Description: K7174 is a known GATA2 inhibitor. The IHH cells were transiently transfected with empty vector (for the NT) or human GATA2-expressing plasmid as well as pRL-TK (internal control) and GATA-Luc reporter plasmids. Cells were exposed to DMSO vehicle or compounds for 48 h. Experiments were in triplicate.

[4] = system: hSTING and/or mSTING; assay: hSTING- or mSTING-dependent ISRE-luc reporter assay in 293T cells; details: 24 hours
Description: ISRE-luc (reporter), pRL-TK (internal control) and hSTING- or mSTING-expressing plasmids were transiently transfected into 293T cells. Cells were exposed to DMSO vehicle control or compounds for 24 hours. Experiments were done in triplicate.

c1ccc(-c2nc(Cc3c[nH]c4ccccc34)oc2-c2ccccc2)cc1 [Compound 708]
ETV1 inhibition in ETV1-dependent reporter assay [1]: ETV1 inhibitors

COc1ccc(-c2nc(Cc3c[nH]c4ccccc34)oc2-c2ccc(OC)cc2)cc1 [Compound 660]
activation of hSTING in ISRE-luc reporter assay [2]: activate hSTING

COc1ccc(/C(=C\C(=O)N2CCC(O)(c3ccccc3)CC2)CCc2ccccc2)cc1OC [Compound 883]
GATA2 inhibition in GATA2-dependent reporter assay [3]: GATA2 inhibitors

O=C1Nc2ccccc2C1CCc1nc(-c2cccc(F)c2)c(-c2cccc(F)c2)o1 (centres unmarked) [Compound 866]
GATA2 inhibition in GATA2-dependent reporter assay [3]: GATA2 inhibitors

O=C(/C=C(/CCc1cccc(F)c1)c1ccccc1)N1CCC(O)(c2ccccc2)CC1 [Compound 860]
GATA2 inhibition in GATA2-dependent reporter assay [3]: GATA2 inhibitors

O=C1Nc2ccccc2C1Cc1nc(-c2ccccc2)c(-c2ccccc2)o1 (centres unmarked) [Compound 700]
ETV1 inhibition in ETV1-dependent reporter assay [1]: ETV1 inhibitors

FC(F)(F)c1ccccc1-c1nc(CCc2c[nH]c3ccccc23)oc1-c1ccccc1C(F)(F)F [Compound 920]
activation of hSTING in ISRE-luc reporter assay [2]: activate hSTING

Cc1ccc(-c2nc(Cc3c[nH]c4ccccc34)oc2-c2ccc(C)cc2)cc1 [Compound 654]
ETV1 inhibition in ETV1-dependent reporter assay [1]: ETV1 inhibitors

COc1ccccc1-c1nc(CCc2c[nH]c3ccccc23)oc1-c1ccccc1OC [Compound 917]
activation of hSTING in ISRE-luc reporter assay [2]: activate hSTING

Fc1cccc(-c2[nH]c(Cc3c[nH]c4ccccc34)nc2-c2ccco2)c1 [Compound 839]
GATA2 inhibition in GATA2-dependent reporter assay [3]: GATA2 inhibitors

C(=C\c1c[nH]c2ccccc12)/c1nc(-c2ccccc2)c(-c2ccccc2)o1 [Compound 657]
ETV1 inhibition in ETV1-dependent reporter assay [1]: ETV1 inhibitors

COc1ccc(CC/C(=C/C(=O)N2CCC(O)(c3ccccc3)CC2)c2ccccc2)cc1 [Compound 858]
GATA2 inhibition in GATA2-dependent reporter assay [3]: GATA2 inhibitors

c1ccc(-c2nc(CCc3c[nH]c4ccccc34)oc2-c2ccccc2)cc1 [Compound 631]
GATA2 inhibition in GATA2-dependent reporter assay [3]: GATA2 inhibitors

FC(F)(F)c1ccc(-c2nc(Cc3c[nH]c4ccccc34)oc2-c2ccc(C(F)(F)F)cc2)cc1 [Compound 653]
activation of hSTING in ISRE-luc reporter assay [2]: activate hSTING
ETV1 inhibition in ETV1-dependent reporter assay [1]: ETV1 inhibitors

O=C(/C=C(/CCc1cccc(C(F)(F)F)c1)c1ccccc1)N1CCC(O)(c2ccccc2)CC1 [Compound 868]
GATA2 inhibition in GATA2-dependent reporter assay [3]: GATA2 inhibitors

O=C(/C=C(/CCc1ccccc1)c1cccc(C(F)(F)F)c1)N1CCC(O)(c2ccccc2)CC1 [Compound 869]
GATA2 inhibition in GATA2-dependent reporter assay [3]: GATA2 inhibitors

O=C(/C=C(/C=C/c1cccc(C(F)(F)F)c1)c1ccccc1)N1CCC(O)(c2ccccc2)CC1 [Compound 872]
GATA2 inhibition in GATA2-dependent reporter assay [3]: GATA2 inhibitors

C(=C\c1cccs1)/c1nc(-c2ccccc2)c(-c2ccccc2)o1 [Compound 685]
GATA2 inhibition in GATA2-dependent reporter assay [3]: GATA2 inhibitors

FC(F)(F)c1cccc(-c2nc(Cc3c[nH]c4ccccc34)oc2-c2cccc(C(F)(F)F)c2)c1 [Compound 656]
activation of hSTING in ISRE-luc reporter assay [2]: activate hSTING
ETV1 inhibition in ETV1-dependent reporter assay [1]: ETV1 inhibitors

c1coc(-c2nc(CCc3c[nH]c4ccccc34)oc2-c2ccco2)c1 [Compound 919]
activation of hSTING in ISRE-luc reporter assay [2]: activate hSTING

FC(F)(F)c1ccc(-c2nc(CCc3c[nH]c4ccccc34)oc2-c2ccc(C(F)(F)F)cc2)cc1 [Compound 918]
activation of hSTING in ISRE-luc reporter assay [2]: activate hSTING

Cn1cc(Cc2nc(-c3ccccc3)c(-c3ccccc3)o2)c2ccccc21 [Compound 638]
ETV1 inhibition in ETV1-dependent reporter assay [1]: ETV1 inhibitors

Cc1[nH]c2ccccc2c1Cc1nc(-c2ccccc2)c(-c2ccccc2)o1 [Compound 637]
ETV1 inhibition in ETV1-dependent reporter assay [1]: ETV1 inhibitors

Clc1cccc(-c2nc(CCCc3c[nH]c4ccccc34)oc2-c2cccc(Cl)c2)c1 [Compound 762]
activation of hSTING in ISRE-luc reporter assay [2]: activate human STING (hSTING)

Cc1ccc(/C(=C\C(=O)N2CCC(O)(c3ccccc3)CC2)CCc2ccccc2)cc1 [Compound 870]
GATA2 inhibition in GATA2-dependent reporter assay [3]: GATA2 inhibitors

c1coc(-c2nc(CCCc3c[nH]c4ccccc34)oc2-c2ccco2)c1 [Compound 831]
activation of hSTING in ISRE-luc reporter assay [2]: activate hSTING
GATA2 inhibition in GATA2-dependent reporter assay [3]: GATA2 inhibitors

Fc1ccc(-c2nc(Cc3c[nH]c4ccccc34)oc2-c2ccc(F)cc2)cc1 [Compound 652]
ETV1 inhibition in ETV1-dependent reporter assay [1]: ETV1 inhibitors

Fc1ccc(-c2nc(CCCc3c[nH]c4ccccc34)oc2-c2ccc(F)cc2)cc1 [Compound 671]
activation of hSTING in ISRE-luc reporter assay [2]: activate hSTING

FC(F)(F)c1ccccc1-c1nc(CCCc2c[nH]c3ccccc23)oc1-c1ccccc1C(F)(F)F [Compound 677]
activation of hSTING in ISRE-luc reporter assay [2]: activate human STING (hSTING)

FC(F)(F)c1cc(CCc2nc(-c3ccccc3)c(-c3ccccc3)o2)cc(C(F)(F)F)c1 [Compound 689]
activation of hSTING in ISRE-luc reporter assay [2]: activate hSTING

O=C(/C=C(/Cc1ccccc1)c1ccccc1)N1CCC(O)(c2ccccc2)CC1 [Compound 881]
GATA2 inhibition in GATA2-dependent reporter assay [3]: GATA2 inhibitors

COc1ccc(/C(=C\C(=O)N2CCC(O)(c3ccccc3)CC2)CCc2ccccc2)cc1 [Compound 871]
GATA2 inhibition in GATA2-dependent reporter assay [3]: GATA2 inhibitors

COc1cccc(/C=C/c2nc(-c3ccccc3)c(-c3ccccc3)o2)c1 [Compound 684]
GATA2 inhibition in GATA2-dependent reporter assay [3]: GATA2 inhibitors

COc1cccc(-c2nc(Cc3c[nH]c4ccccc34)oc2-c2cccc(O)c2)c1 [Compound 719]
GATA2 inhibition in GATA2-dependent reporter assay [3]: GATA2 inhibitors

Fc1ccc2[nH]cc(Cc3nc(-c4ccccc4)c(-c4ccccc4)o3)c2c1 [Compound 636]
ETV1 inhibition in ETV1-dependent reporter assay [1]: ETV1 inhibitors

COc1ccccc1-c1nc(CCCc2c[nH]c3ccccc23)oc1-c1ccccc1OC [Compound 916]
activation of hSTING in ISRE-luc reporter assay [2]: activate hSTING

c1ccc(-c2nc(CCCc3c[nH]c4ccccc34)oc2-c2ccccc2)cc1 [Compound 632]
GATA2 inhibition in GATA2-dependent reporter assay [3]: GATA2 inhibitors

Fc1ccccc1-c1nc(Cc2c[nH]c3ccccc23)oc1-c1ccccc1F [Compound 655]
ETV1 inhibition in ETV1-dependent reporter assay [1]: ETV1 inhibitors

Cc1ccc(/C(=C\C(=O)N2CCC(O)(c3ccccc3)CC2)CCc2cccc(F)c2)cc1 [Compound 882]
GATA2 inhibition in GATA2-dependent reporter assay [3]: GATA2 inhibitors

O=C(/C=C(/CCc1ccccc1)c1ccccc1)N1CCC(O)(c2ccccc2)CC1 [Compound 859]
GATA2 inhibition in GATA2-dependent reporter assay [3]: GATA2 inhibitors

COc1cccc(-c2nc(CCc3c[nH]c4ccccc34)oc2-c2cccc(OC)c2)c1 [Compound 641]
activation of hSTING in ISRE-luc reporter assay [2]: activate hSTING
ETV1 inhibition in ETV1-dependent reporter assay [1]: ETV1 inhibitors

Oc1cccc(N2CCN(Cc3nc(-c4ccccc4)c(-c4ccccc4)o3)CC2)c1 [Compound 1182]
activation of hSTING and/or mSTING in ISRE-luc reporter assay ([4]; 20 μM): activate hSTING and/or mSTING

C=CCN(CCc1c[nH]c2ccccc12)Cc1nc(-c2ccccc2)c(-c2ccccc2)o1 [Compound 1372]
activation of hSTING and/or mSTING in ISRE-luc reporter assay [4]: activate hSTING and/or mSTING

Fc1cccc(-c2nc(CN3CCC(c4c[nH]c5ccccc45)CC3)[nH]c2-c2cccc(F)c2)c1 [Compound 1137]
activation of hSTING and/or mSTING in ISRE-luc reporter assay [4]: activate hSTING and/or mSTING

O=C(c1ccc(F)cc1)N1CCN(Cc2nc(-c3cccc(F)c3)c(-c3cccc(F)c3)[nH]2)CC1 [Compound 1179]
activation of hSTING and/or mSTING in ISRE-luc reporter assay ([4]; 10 μM): activate hSTING and/or mSTING

O=C(C/C(=C\c1ccccc1)c1ccccc1)N1CCC(O)(c2ccccc2)CC1 [Compound 880]
GATA2 inhibition in GATA2-dependent reporter assay [3]: GATA2 inhibitors
